Patent US12441730B2, “PRMT5 inhibitors” (Merck Sharp & Dohme LLC, priority 2019, dated 2025)
Where two headings read alike, the source gives them in different places.

Key:
[1] = target: T1, Full-length (FL)-PRMT5-MEP50 enzyme complex (Homo sapiens, UniProt O14744); assay: PRMT5-MEP50 Enzyme Methylation Assay (Version A); assay type: biochemical
T1 construct: Full-length (FL)-PRMT5-MEP50 enzyme complex (recombinant proteins from baculovirus-transfected Sf21 cells: FL-PRMT5; MW=73837 kDa and FL-MEP50; MW=38614); made in house; host or cells: baculovirus-transfected Sf21 cells
T1 sequence (O14744 whole entry): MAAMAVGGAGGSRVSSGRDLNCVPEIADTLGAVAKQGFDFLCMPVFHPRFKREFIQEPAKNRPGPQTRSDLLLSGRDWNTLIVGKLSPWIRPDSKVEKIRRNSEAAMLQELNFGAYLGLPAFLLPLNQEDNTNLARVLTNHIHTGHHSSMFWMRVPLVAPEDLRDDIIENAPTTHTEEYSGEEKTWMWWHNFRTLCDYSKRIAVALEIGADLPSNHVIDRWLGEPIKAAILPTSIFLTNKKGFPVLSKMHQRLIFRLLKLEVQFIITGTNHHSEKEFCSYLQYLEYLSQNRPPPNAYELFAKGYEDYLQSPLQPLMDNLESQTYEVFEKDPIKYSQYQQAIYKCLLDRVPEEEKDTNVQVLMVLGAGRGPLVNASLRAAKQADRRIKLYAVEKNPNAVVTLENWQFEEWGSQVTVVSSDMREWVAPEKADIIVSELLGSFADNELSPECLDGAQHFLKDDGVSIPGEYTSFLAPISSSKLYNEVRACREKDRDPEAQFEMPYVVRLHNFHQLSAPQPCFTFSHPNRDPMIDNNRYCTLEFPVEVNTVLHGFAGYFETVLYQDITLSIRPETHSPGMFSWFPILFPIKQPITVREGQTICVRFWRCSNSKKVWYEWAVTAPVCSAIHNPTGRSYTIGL
T1 sequence (Q9BQA1 whole entry partner): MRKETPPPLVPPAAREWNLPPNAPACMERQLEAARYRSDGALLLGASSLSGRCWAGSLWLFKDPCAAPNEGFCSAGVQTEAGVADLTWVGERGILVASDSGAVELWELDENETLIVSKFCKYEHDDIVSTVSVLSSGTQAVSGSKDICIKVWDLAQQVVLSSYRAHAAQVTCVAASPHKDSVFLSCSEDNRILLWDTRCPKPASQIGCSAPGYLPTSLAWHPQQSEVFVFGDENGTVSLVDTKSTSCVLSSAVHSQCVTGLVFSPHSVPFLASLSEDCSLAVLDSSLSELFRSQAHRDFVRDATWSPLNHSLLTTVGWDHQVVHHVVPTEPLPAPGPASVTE
Outline: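 Compound was pre-incubated with enzyme for 60 min, then reacted 150 min at 37° C. at final 1.0 nM PRMT5-MEP50, 15 μM SAM and 75 nM biotinylated H4R3(Me1) peptide, in 50 mM Bicine pH 8.0 with 1% DMSO. SAMDI mass-spectrometric readout of Me1→Me2 conversion. EC50 from 4- or 7-parameter regression.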

[2] = test system: symmetric dimethylation of arginine (SDMA) of PRMT5 substrates in MCF-7 cells; assay: PRMT5 Cell Target Engagement (TE) Assay; assay type: cell-based; details: Homo sapiens, MCF7, 72 h, 3 days treatment, SDMA high content imaging
Outline: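 Readout is single-cell nuclear symmetric-dimethylarginine immunofluorescence (Alexa488), normalized to DMSO-treated cells. Compounds were applied to MCF-7 cells for 3 days at 37 °C, top concentration 10000 nM in 1:3 steps over ten points; curves fitted with 4-parameter robust fit.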

[3] = second value of 7 parameter biphasic fit, read-out: Enzyme Methylation Assay Version A (EC50 2)
[4] = single EC50 = 4 parameter single site sigmoidal fit, EC50 1 = first value of 7 parameter biphasic fit, read-out: Enzyme Methylation Assay Version A (EC50 or EC50 1)

| Compound | EC50 [1, 3] [nM] | EC50 [1, 4] [nM] | EC50 [2] [nM] |
| --- | --- | --- | --- |
| Cc1cc2nnc(C(=O)N3CC[C@]4(Cc5ccccc5CN4)[C@H](O)C3)c(C)n2n1 [Example 184, (4,7-dimethylpyrazolo[5,1-c][1,2,4]triazin-3-yl)((3R,3′R)-3′-hydroxy-1,4-dihydro-2H-spiro[isoquinoline-3,4′-piperidin]-1′-yl)methanone] | 21900 | 16.2 | 995 |
| O=C(c1nccn2nccc12)N1CC[C@]2(Cc3ccccc3CN2)[C@H](O)C1 [Example 185, ((3R,3′R)-3′-hydroxy-1,4-dihydro-2H-spiro[isoquinoline-3,4′-piperidin]-1′-yl)(pyrazolo[1,5-a]pyrazin-4-yl)methanone] | 26900 | 24 | 1540 |
| O=C(c1ccnc(-n2cnnn2)c1)N1CC[C@]2(Cc3ccccc3CN2)[C@H](O)C1 [Example 187, (2-(1H-tetrazol-1-yl)pyridin-4-yl)((3R,3′R)-3′-hydroxy-1,4-dihydro-2H-spiro[isoquinoline-3,4′-piperidin]-1′-yl)methanone] | 26900 | 75.9 | 4280 |
| O=C(c1ccc2nccn2n1)N1CC[C@]2(Cc3ccccc3CN2)[C@H](O)C1 [Example 188, ((3R,3′R)-3′-hydroxy-1,4-dihydro-2H-spiro[isoquinoline-3,4′-piperidin]-1′-yl)(imidazo[1,2-b]pyridazin-6-yl)methanone] | 74100 | 144 | 3320 |
| O=C(c1ccnc2ncnn12)N1CC[C@]2(Cc3ccccc3CN2)[C@H](O)C1 [Example 189, [1,2,4]triazolo[1,5-a]pyrimidin-7-yl((3R,3′R)-3′-hydroxy-1,4-dihydro-2H-spiro[isoquinoline-3,4′-piperidin]-1′-yl)methanone] | 66100 | 30.2 | 3500 |
| O=C(c1c[nH]c2ncncc12)N1CC[C@]2(Cc3ccccc3CN2)[C@H](O)C1 [Example 190, [(3R,3′R)-3′-hydroxy-1,4-dihydro-1′H,2H-spiro[isoquinoline-3,4′-piperidin]-1′-yl](1H-pyrrolo[2,3-d]pyrimidin-5-yl)methanone] |  | 343 | ≥ 10000 |
| Cc1nn(C)c2[nH]c(C(=O)N3CC[C@]4(Cc5ccccc5CN4)[C@H](O)C3)cc(=O)c12 [Example 191, 6-{[(3R,3′R)-3′-hydroxy-1,4-dihydro-1′H,2H-spiro[isoquinoline-3,4′-piperidin]-1′-yl]carbonyl}-1,3-dimethyl-1,7-dihydro-4H-pyrazolo[3,4-b]pyridin-4-one] |  | 2880 | ≥ 10000 |
| O=C(c1ccc(-n2cnnn2)cn1)N1CC[C@]2(Cc3ccccc3CN2)[C@H](O)C1 [Example 192, [(3R,3′R)-3′-hydroxy-1,4-dihydro-1′H,2H-spiro[isoquinoline-3,4′-piperidin]-1′-yl][5-(1H-tetrazol-1-yl)-2-pyridinyl]methanone] | 34700 | 112 | ≥ 10000 |
| Cc1ccnc2nc(C(=O)N3CC[C@]4(Cc5ccccc5CN4)[C@H](O)C3)nn12 [Example 193, [(3R,3′R)-3′-hydroxy-1,4-dihydro-1′H,2H-spiro[isoquinoline-3,4′-piperidin]-1′-yl](7-methyl[1,2,d]triazolo[1,5-a]pyrimidin-2-yl)methanone] |  | 27000 | 9610 |
| O=C(c1cn2ncnc2cn1)N1CC[C@]2(Cc3ccccc3CN2)[C@H](O)C1 [Example 194, [(3R,3′R)-3′-hydroxy-1,4-dihydro-1′H,2H-spiro[isoquinoline-3,4′-piperidin]-1′-yl]([1,2,d]triazolo[1,5-a]pyrazin-6-yl)methanone] | ≥ 100000 | 479 | ≥ 10000 |
| O=C(c1cnc2ncnn2c1)N1CC[C@]2(Cc3ccccc3CN2)[C@H](O)C1 [Example 195, [(3R,3′R)-3′-hydroxy-1,4-dihydro-1′H,2H-spiro[isoquinoline-3,4′-piperidin]-1′-yl]([1,2,d]triazolo[1,5-a]pyrimidin-6-yl)methanone] |  | 15700 | ≥ 10000 |
| Cc1ccc(C(=O)N2CC[C@]3(Cc4ccccc4CN3)[C@H](O)C2)c(OCCO)n1 [Example 196, [(3R,3′R)-3′-hydroxy-1,4-dihydro-1′H,2H-spiro[isoquinoline-3,4′-piperidin]-1′-yl][2-(2-hydroxyethoxy)-6-methyl-3-pyridinyl]methanone] | 6310 | 15.3 | 409 |
| CNc1nc(C)ccc1C(=O)N1CC[C@]2(Cc3ccccc3CN2)[C@H](O)C1 [Example 198, [(3R,3′R)-3′-hydroxy-1,4-dihydro-1′H,2H-spiro[isoquinoline-3,4′-piperidin]-1′-yl][6-methyl-2-(methylamino)-3-pyridinyl]methanone] | 16000 | 19.3 | 1070 |
| O=C(c1cn2cccc(F)c2n1)N1CC[C@]2(Cc3ccccc3CN2)[C@H](O)C1 [Example 202, (8-fluoroimidazo[1,2-a]pyridin-2-yl)[(3R,3′R)-3′-hydroxy-1,4-dihydro-1′H,2H-spiro[isoquinoline-3,4′-piperidin]-1′-yl]methanone] | 16200 | 26.3 | 795 |
| Cc1ccc(C(=O)N2CC[C@]3(Cc4ccccc4CN3)[C@H](O)C2)c(Cl)n1 [Example 204, (2-chloro-6-methyl-3-pyridinyl)[(3R,3′R)-3′-hydroxy-1,4-dihydro-1′H,2H-spiro[isoquinoline-3,4′-piperidin]-1′-yl]methanone] | 14600 | 21.9 | 1590 |

Stronger by EC50 [1, 4], values ahead:

| EC50 [1, 3] [nM] | EC50 [1, 4] [nM] | EC50 [2] [nM] | Compound |
| --- | --- | --- | --- |
| 7940 | 4.87 | 297 | Cc1cc(-c2onc(C)c2C(=O)N2CC[C@]3(Cc4ccccc4CN3)[C@H](O)C2)no1 [Example 183, (3′,5-dimethyl-[3,5′-biisoxazol]-4′-yl)((3R,3′R)-3′-hydroxy-1,4-dihydro-2H-spiro[isoquinoline-3,4′-piperidin]-1′-yl)methanone] |
| 501 | 0.241 | 71.2 | Cc1ccc(C(=O)N2CC[C@]3(Cc4ccccc4CN3)[C@H](O)C2)c(-n2nccn2)n1 [Example 186, ((3R,3′R)-3′-hydroxy-1,4-dihydro-2H-spiro[isoquinoline-3,4′-piperidin]-1′-yl)(6-methyl-2-(2H-1,2,3-triazol-2-yl)pyridin-3-yl)methanone] |
| 16000 | 14.2 | 1310 | Cc1ccc(C(=O)N2CC[C@]3(Cc4ccccc4CN3)[C@H](O)C2)c(Br)n1 [Example 197, (2-bromo-6-methyl-3-pyridinyl)[(3R,3′R)-3′-hydroxy-1,4-dihydro-1′H,2H-spiro[isoquinoline-3,4′-piperidin]-1′-yl]methanone] |
| 7240 | 4.08 | 503 | Cc1ccc(C(=O)N2CC[C@]3(Cc4ccccc4CN3)[C@H](O)C2)c(C2CC2)n1 [Example 199, (2-cyclopropyl-6-methyl-3-pyridinyl)[(3R,3′R)-3′-hydroxy-1,4-dihydro-1′H,2H-spiro[isoquinoline-3,4′-piperidin]-1′-yl]methanone] |
| 3020 | 6.73 | 214 | CCOc1nc(C)ccc1C(=O)N1CC[C@]2(Cc3ccccc3CN2)[C@H](O)C1 [Example 200, (2-ethoxy-6-methyl-3-pyridinyl)[(3R,3′R)-3′-hydroxy-1,4-dihydro-1′H,2H-spiro[isoquinoline-3,4′-piperidin]-1′-yl]methanone] |
| 1020 | 1.36 | 168 | CCCOc1nc(C)ccc1C(=O)N1CC[C@]2(Cc3ccccc3CN2)[C@H](O)C1 [Example 201, [(3R,3′R)-3′-hydroxy-1,4-dihydro-1′H,2H-spiro[isoquinoline-3,4′-piperidin]-1′-yl](6-methyl-2-propoxy-3-pyridinyl)methanone] |
| 292 | 0.846 | 25.7 | Cc1cc(I)c2nc(C(=O)N3CC[C@]4(Cc5ccccc5CN4)[C@H](O)C3)cn2c1 [Example 203, [(3R,3′R)-3′-hydroxy-1,4-dihydro-1′H,2H-spiro[isoquinoline-3,4′-piperidin]-1′-yl](8-iodo-6-methylimidazo[1,2-a]pyridin-2-yl)methanone] |
| 2750 | 2.8 | 324 | COc1nc(C)ccc1C(=O)N1CC[C@]2(Cc3ccccc3CN2)[C@H](O)C1 [Example 205, [(3R,3′R)-3′-hydroxy-1,4-dihydro-1′H,2H-spiro[isoquinoline-3,4′-piperidin]-1′-yl](2-methoxy-6-methyl-3-pyridinyl)methanone] |
| 7240 | 4.33 | 363 | O=C(c1cn2cccc(Cl)c2n1)N1CC[C@]2(Cc3ccccc3CN2)[C@H](O)C1 [Example 206, (8-chloroimidazo[1,2-a]pyridin-2-yl)[(3R,3′R)-3′-hydroxy-1,4-dihydro-1′H,2H-spiro[isoquinoline-3,4′-piperidin]-1′-yl]methanone] |
| 288 | 0.382 | 27.6 | Cc1cc(Cl)c2nc(C(=O)N3CC[C@]4(Cc5ccccc5CN4)[C@H](O)C3)cn2c1 [Example 207, (8-chloro-6-methylimidazo[1,2-a]pyridin-2-yl)[(3R,3′R)-3′-hydroxy-1,4-dihydro-1′H,2H-spiro[isoquinoline-3,4′-piperidin]-1′-yl]methanone] |
